In patent US10143650B2, “Dispersion intended for encapsulating an active product and associated use” (CAPSUM, priority 2012, dated 2018):

Legend:
[1] = leakage of encapsulated active product into the continuous phase (optical absorbance versus time); assay type: physicochemical
From the text: FIG. 4 is a graph illustrating the absorbance in the continuous phase in a dispersion according to the invention, wherein an active absorbent product was encapsulated in the dispersed phase;
FIG. 5 is a view similar to FIG. 4 for a dispersion according to the invention containing another absorbent active product; and
FIGS. 4 and 5 respectively illustrate the ratio of optical absorbance in the continuous phase 14 versus time for respectively the dispersion of the first example containing dextran, and for the dispersion of the second example containing bovine serum albumin.

[2] = partition coefficient of the active product between membrane phase and internal phase (octanol/water) and ratio R2 over membrane viscosity; assay type: physicochemical; settings: concentration in octanol over concentration in water
Protocol: The ratio of the partition coefficient Cp of the active product 20 between the membrane 18 and the internal drop 16 is obtained by determining the partition coefficient of this active product 20 between a homologous phase to the intermediate phase forming the membrane 18 and a homologous phase to the internal phase forming the internal drop 16. The ratio Cp is calculated with the following equation: Cp=K=[active in the membrane phase]/[active in the internal phase].
In particular, when the internal drop 16 is aqueous, and when the membrane 18 is oily, the ratio Cp may be estimated by using log P=log K with: Cp=K=[active in octanol]/[active in water].
Further, the value of log P (=log (K)) may be simply evaluated by means of easily accessible molecular modeling software packages on the Internet such as for example on www.molispiration.com, www.vcclab.org/lab/alogps/start.html.
Experimental determination is possible with the following method: an accurate amount of the active is weighed and solubilized in one of the two water or octanol phases. Two equivalent volumes of both phases are then put into contact with stirring. The concentrations of the active product in each of both phases are then measured after thermodynamic equilibrium of the system. This concentration measurement may for example be carried out by directly measuring the absorbance, if the molecule absorbs light, or by liquid chromatography. This measurement is for example carried out at 22° C.
The coefficient K is then determined experimentally by the ratio of the concentration of the active in octanol over that in water.

[3] = absorbance in continuous phase, after more than one week at 50° C., R1 0.38

Molecule | leakage of active product from the dispersed bodies [1, 3] | partition coefficient (K, Cp) of the active product [2] | leakage of active product from the dispersed bodies ([1]; R2 equal to 3.05, time and temperature not stated)
dextran | no leakage | less than 10^−2 | 
bovine serum albumin | no leakage | less than 10^−3 | 
CCN(CC)c1ccc2c(-c3ccccc3C(=O)O)c3ccc(=[N+](CC)CC)cc-3oc2c1.[Cl-] [Rhodamine B] |  | 70.8 | leakage is observed
